Tested on: not given
Assay: not given
Conditions: not given

Structure (SMILES)	melting point [°C]
Cn1c(CCc2ccc(/C(N)=N/O)cc2)nc2cc(N(CCN3CCOCC3)S(=O)(=O)c3ccccc3)ccc21 [Example 56, N-{2-[2-(4-(amino-hydroximinomethyl)-phenyl)-ethyl]-1-methyl-benzimidazol-5-yl}-N-[2-(morpholin-4-yl)-ethyl]-(benzenesulphonamide)]	183 to 186

Target: T1, rh beta tryptase (Homo sapiens, UniProt Q15661)
T1 construct: purchased Promega
Assay: tryptase inhibition test (cleavage of N-p-tosyl-Gly-Pro-Lys-para-nitroaniline, p-nitroaniline measured at 405 nm)
Assay type: biochemical
Conditions: Tris HCl buffer pH 7.4 with calcium and heparin; substrate 0.6 mM; 5 min pre-incubation, 5 min incubation at 37° C.; enzyme activity 0.91 U/ml
Protocol: The compounds according to the invention are characterised by their tryptase-inhibiting activity. This ability to inhibit tryptase was investigated using the test described below. The measurement is carried out in Tris HCl buffer (100 mM), which additionally contains calcium (5 mM) and heparin (100 mg/ml), at pH 7.4. The standard used is rh beta tryptase which may be obtained commercially from Promega, for example. The substrate used is N-p-tosyl-Gly-Pro-Lys-para-nitroaniline in a concentration of 0.6 mM. The substrate is digested with tryptase to form p-nitroaniline which can be measured at 405 nm. Usually, an incubation period of 5 minutes and an incubation temperature of 37° C. are chosen. The enzyme activity used is 0.91 U/ml. The measurements are carried out in an Autoanalyser (CobasBio) made by Hofmann LaRoche. The potential inhibitory substances are used in concentrations of 10 μM in the screening, the inhibition of the tryptase being given in percent. The IC50 is determined at over 70% inhibition (concentration at which 50% of the enzyme activity is inhibited). After 5 minutes' pre-incubation of the potential inhibitory substances, the substrate is added to start the reaction, the formation of p-nitroaniline being taken as a measurement of the enzyme activity after 5 minutes, after testing the linearity.
The data obtained after the above test has been carried out (IC50 values) can be found in Table 3.

T1 sequence (Q15661 31-275): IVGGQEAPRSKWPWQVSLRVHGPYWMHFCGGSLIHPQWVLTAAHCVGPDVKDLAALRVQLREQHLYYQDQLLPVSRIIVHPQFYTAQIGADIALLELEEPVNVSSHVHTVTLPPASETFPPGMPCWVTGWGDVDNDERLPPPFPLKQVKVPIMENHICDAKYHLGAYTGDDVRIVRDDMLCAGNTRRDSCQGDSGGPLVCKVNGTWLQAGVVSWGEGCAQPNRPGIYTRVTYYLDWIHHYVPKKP

Structure (SMILES)	IC50 [nM]
Cn1c(CCc2ccc(C(=N)N)cc2)nc2cc(N(CCN3CCCC3)S(=O)(=O)c3ccccc3)ccc21 [Example 34, 1-methyl-2-[2-(4-amidino-phenyl)-ethyl]-5-[N-(2-pyrrolidin-1-ylethyl)-benzene-sulphonylamino]-benzimidazole]	43
Cn1c(CCc2ccc(C(=N)N)cc2)nc2cc(N(Cc3cccnc3)S(=O)(=O)c3ccc4ccccc4c3)ccc21 [Example 45, 1-Methyl-2-[2-(4-amidino-phenyl)-ethyl]-5-[N-(pyrid-3-yl-methyl)-naphth-2-ylsulphonyl-amino]-benzimidazole;]	22
Cn1c(CCc2ccc(C(=N)N)cc2)nc2cc(N(Cc3ccccn3)S(=O)(=O)c3ccc4ccccc4c3)ccc21 [Example 44, 1-Methyl-2-[2-(4-amidino-phenyl)-ethyl]-5-[N-(pyrid-2-yl-methyl)-naphth-2-ylsulphonyl-amino]-benzimidazole;]	22
CN1CCC(N(c2ccc3c(c2)nc(CCc2ccc(C(=N)N)cc2)n3C)S(=O)(=O)c2ccccc2)CC1 [Example 12, 1-methyl-2-[2-(4-amidino-phenyl)-ethyl]-5-[N-(1-methyl-piperidin-4-yl)-benzene-sulphonylamino]-benzimidazole]	179
CCN(CC)CCN(c1ccc2c(c1)nc(CCc1ccc(C(=N)N)cc1)n2CC1CCCO1)S(=O)(=O)c1ccccc1 (stereo not drawn) [Example 27, 1-(2-tetrahydrofurylmlethyl)-2-[2-(4-amidinophenyl)-ethyl]-5-[N-(2-diethylaminoethyl)-benzenesulphonylamino]-benzimidazole]	273
CN(C)CCCCN(c1ccc2c(c1)nc(CCc1ccc(C(=N)N)cc1)n2C)S(=O)(=O)c1ccccc1 [Example 54, 1-Methyl-2-[2-(4-amidino-phenyl)-ethyl]-5-[N-(4-dimethyl-aminobutyl)-benzenesulphonyl-amino]-benzimidazole]	27
Cn1c(CCc2ccc(C(=N)N)cc2)nc2cc(N(CC(=O)N3CCN(Cc4ccccc4)CC3)S(=O)(=O)c3ccc4ccccc4c3)ccc21 [Example 50, 1-Methyl-2-[2-(4-amidino-phenyl)-ethyl]-5-[N-(4′-benzyl-piperazin-1-yl-carbonylmethyl)-naphth-2-ylsulphonylamino]-benzimidazole]	215
Cn1c(CCc2ccc(C(=N)N)cc2)nc2cc(N(CC(=O)N3CCC(Cc4ccccc4)CC3)S(=O)(=O)c3ccc4ccccc4c3)ccc21 [Example 46, 1-Methyl-2-[2-(4-amidino-phenyl)-ethyl]-5-[N-(4′-benzyl-piperid-1-yl-carbonylmethyl)-naphth-2-ylsulphonylamino]-benzimidazole]	30
